According to US20200054587A1, “METHODS AND MATERIALS FOR REDUCING SCARRING ASSOCIATED WITH ARTHROFIBROSIS OR TENDON INJURY” (Mayo Foundation for Medical Education and Research, priority 2018, published 2020):
Like-named read-outs stand apart in the source and are kept apart here.

Columns and labels:
[1] = cited from earlier work
[2] = test system: ACTA2; experiment: qPCR of alpha smooth muscle actin gene in posterior capsule tissue, rabbit knee arthrofibrosis model; assay type: in vivo; conditions: rabbit posterior capsule tissue at 24 weeks, FIG. 3B
Description: (§1) All rabbits underwent luxation (hyperextension) and arthrodesis (fixation) of the operative knee. […] After eight weeks, the arthrodesis was reversed. Rabbits were allowed to roam free in individual spaces (1 m^2) for the entire 24 week duration. Angles of passive extension of operative and contralateral, non-operative limbs were measured at 8, 10, 16, and 24 weeks, using a validated dynamic load cell device. Rabbits were sacrificed at 24 weeks and samples of the posterior capsule were taking from the operative and contralateral, non-operative knee. Data from mRNA extraction and qPCR were obtained to analyze expression of alpha-1 collagen (COL1A1, COL2A1 and COL5A1) and alpha smooth muscle actin (ACTA2), all of which are involved in fibrosis.

[3] = test system: COL1A1, COL2A1 and COL5A1; experiment: qPCR of collagen genes in posterior capsule tissue, rabbit knee arthrofibrosis model; assay type: in vivo; conditions: rabbit posterior capsule tissue at 24 weeks, FIG. 3A
Description: as §1

[4] = test system: flexor tendon injury; experiment: In vivo turkey flexor tendon injury model; conditions: 50 mg powder applied to repaired tendon, 6 weeks
From the text: Flexor tendon injuries are common and pose a clinical challenge for functional restoration. Postoperative repair rupture and scar formation results in prolonged work disability for patients. […] Twelve male turkeys underwent surgical flexor tendon cut and repair. […] After sacrifice, digits were collected and analyzed for adhesion formation as well as healing at the macrolevel.

[5] = test system: adipose tissue-derived mesenchymal stem cells (aMSC); experiment: Live/dead cytotoxicity staining (Calcein AM / Ethidium Homdimer-1); conditions: after initial exposure, absence of any dead-cell staining, FIG. 1B
[6] = test system: knee arthrofibrosis; experiment: Rabbit knee arthrofibrosis model, passive range of motion; assay type: in vivo; conditions: 50 mg in gel injected into the joint capsule during surgery
Description: as §1

N=C(N)c1ccc(OCCCCCOc2ccc(C(=N)N)cc2)cc1 [Pentamidine isethionate, 4,4-[1,5-pentanediylbis(oxy)]bis-benzenecarboximidamid]
solubility ([1]; acetone): insoluble
solubility ([1]; alcohol): soluble
solubility ([1]; chloroform): insoluble
solubility ([1]; ether): insoluble
solubility ([1]; glycerin): soluble
solubility ([1]; water): soluble

N=C(N)c1ccc(OCCCCCOc2ccc(C(=N)N)cc2)cc1 [pentamidine, 4,4′-[pentane-1,5-diylbis(oxy)]dibenzenecarboximid-amide]
ACTA2 gene expression vs control tissue [2]: decreased
collagen (COL1A1, COL2A1 and COL5A1) expression vs control tissue [3]: decreased
post-operative scar formation (gross anatomy) vs control [4]: marked reduction
adhesion score, 0 (no adhesion) to 8 (very severe) ([4]; all six treated turkeys, FIG. 4): significantly reduced
cytotoxic effect (Ethidium Homdimer-1 staining) [5]: no cytotoxic effect
passive range of motion (ROM), pentamidine vs control rabbits ([6]; 24 weeks, p=0.0082): statistically significant difference
passive range of motion (ROM), pentamidine vs control rabbits ([6]; eight weeks, p=0.0303): statistically significant difference
